# According to the supplement of paper PMC5579334:
# ± gives the standard deviation of the averaged measurements.
# Assays:
# [1] = tested on: HS-Sch-2; assay: relative IC50 (inflection point of fitted dose-response curve, CellTiter-Glo viability, 72 h; top asymptote may be below 50% inhibition); higher = less potent
# Procedure, shortened: (§1)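 MPNST cell lines and primary human Schwann cells (750–1000 cells per well) went into 384-well plates preprinted with each compound at five concentrations in 10-fold steps. Plates were incubated 72 h at 37 °C, 5% CO2. Viability was read as CellTiter-Glo ATP luminescence, scaled between vehicle and positive-control wells, with duplicates averaged where present. Percent inhibition is at the top concentration; drug sensitivity score and relative IC50 (censored at top concentration) come from four-parameter logistic fits.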
# [2] = tested on: HS-PSS; assay: as above
# Procedure, shortened: as §1
# [3] = tested on: ST8814; assay: as above
# Procedure, shortened: as §1
# [4] = tested on: YST-1; assay: as above
# Procedure, shortened: as §1
# [5] = tested on: HSC1; assay: relative IC50 (inflection point of fitted dose-response curve, CellTox-Green cytotoxicity, 72 h; top asymptote may be below 50%); higher = less potent
# Procedure, shortened: (§2)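 MPNST cell lines and primary human Schwann cells were incubated 72 h at 37 °C in 384-well plates holding five 10-fold compound dilutions. CellTox-Green was added before seeding at a final 1:1000 dilution and reported fluorescence from DNA released by disrupted cells. Signals were scaled to vehicle and positive-control wells, and cultures failing plate quality control were dropped. Drug sensitivity score and relative IC50 come from four-parameter logistic fits, with IC50 censored at the top concentration.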
# [6] = tested on: HSC2; assay: as above
# Procedure, shortened: as §2
# [7] = tested on: STS26T; assay: as above
# Procedure, shortened: as §2
# [8] = tested on: HS-PSS; assay: as above
# Procedure, shortened: as §2
# [9] = tested on: ST8814; assay: as above
# Procedure, shortened: as §2
# [10] = tested on: STS26T; assay: relative IC50 (inflection point of fitted dose-response curve, CellTiter-Glo viability, 72 h; top asymptote may be below 50% inhibition); higher = less potent
# Procedure, shortened: as §1
# [11] = tested on: HS-Sch-2; assay: drug sensitivity score (DSS, CellTiter-Glo viability, 72 h) (DSS (dimensionless)); higher = more sensitive; extreme values may be limits of the assay
# Procedure, shortened: as §1
# [12] = tested on: HSC1 (primary human Schwann cells); assay: as above
# Procedure, shortened: as §1
# [13] = tested on: S1507-2; assay: as above
# Procedure, shortened: as §1
# [14] = tested on: STS26T; assay: as above
# Procedure, shortened: as §1
# [15] = tested on: HS-PSS; assay: as above
# Procedure, shortened: as §1
# [16] = tested on: S462; assay: as above
# Procedure, shortened: as §1
# [17] = tested on: HSC2 (primary human Schwann cells); assay: as above
# Procedure, shortened: as §1
# [18] = tested on: ST8814; assay: as above
# Procedure, shortened: as §1
# [19] = tested on: YST-1; assay: as above
# Procedure, shortened: as §1
# [20] = tested on: HSC1 (primary human Schwann cells); assay: drug sensitivity score (DSS, CellTox-Green cytotoxicity, 72 h) (DSS (dimensionless)); higher = more cytotoxic; extreme values may be limits of the assay
# Procedure, shortened: as §2
# [21] = tested on: S1507-2; assay: as above
# Procedure, shortened: as §2
# [22] = tested on: STS26T; assay: as above
# Procedure, shortened: as §2
# [23] = tested on: HS-PSS; assay: as above
# Procedure, shortened: as §2
# [24] = tested on: HSC2 (primary human Schwann cells); assay: as above
# Procedure, shortened: as §2
# [25] = tested on: ST8814; assay: as above
# Procedure, shortened: as §2
# [26] = tested on: HS-Sch-2; assay: % inhibition of CellTiter-Glo viability at highest tested concentration (72 h), relative to DMSO and benzethonium chloride controls; higher = more inhibition
# Procedure, shortened: as §1
# [27] = tested on: HSC1 (primary human Schwann cells); assay: as above
# Procedure, shortened: as §1
# [28] = tested on: S1507-2; assay: as above
# Procedure, shortened: as §1
# [29] = tested on: STS26T; assay: as above
# Procedure, shortened: as §1
# [30] = tested on: HS-PSS; assay: as above
# Procedure, shortened: as §1
# [31] = tested on: S462; assay: as above
# Procedure, shortened: as §1
# [32] = tested on: HSC2 (primary human Schwann cells); assay: as above
# Procedure, shortened: as §1
# [33] = tested on: ST8814; assay: as above
# Procedure, shortened: as §1
# [34] = tested on: YST-1; assay: as above
# Procedure, shortened: as §1
Structure (SMILES),relative IC50 [1] [µM],relative IC50 [2] [µM],relative IC50 [3] [µM],relative IC50 [4] [µM],relative IC50 [5] [µM],relative IC50 [6] [µM],relative IC50 [7] [µM],relative IC50 [8] [µM],relative IC50 [9] [µM],relative IC50 [10] [µM],drug sensitivity score [11],drug sensitivity score [12],drug sensitivity score [13],drug sensitivity score [14],drug sensitivity score [15],drug sensitivity score [16],drug sensitivity score [17],drug sensitivity score [18],drug sensitivity score [19],drug sensitivity score [20],drug sensitivity score [21],drug sensitivity score [22],drug sensitivity score [23],drug sensitivity score [24],drug sensitivity score [25],% inhibition [26] [%],% inhibition [27] [%],% inhibition [28] [%],% inhibition [29] [%],% inhibition [30] [%],% inhibition [31] [%],% inhibition [32] [%],% inhibition [33] [%],% inhibition [34] [%]
C[C@]12CC[C@H](O)CC1=CC[C@@H]1[C@@H]2CC[C@]2(C)C(c3cccnc3)=CC[C@@H]12 [Abiraterone],> 5,> 5,> 5,> 5,> 5,> 5,> 5,> 5,> 5,–,–,–,–,–,–,–,–,–,–,–,–,–,–,–,–,–,–,–,–,–,–,–,–,–
COc1cc2ncnc(Nc3ccc(F)c(Cl)c3)c2cc1NC(=O)/C=C/CN1CCCCC1 [Dacomitinib],0.148,0.144,–,> 1,> 1,> 1,> 1,–,> 1,–,–,–,–,–,–,–,–,–,–,–,–,–,–,–,–,–,–,–,–,–,–,–,–,–
CC1(C)CCC(CN2CCN(c3ccc(C(=O)NS(=O)(=O)c4ccc(NCC5CCOCC5)c([N+](=O)[O-])c4)c(Oc4cnc5[nH]ccc5c4)c3)CC2)=C(c2ccc(Cl)cc2)C1 [ABT-199],–,–,–,–,> 10,> 10,> 10,–,–,> 10,–,–,–,–,–,–,–,–,–,–,–,–,–,–,–,–,–,–,–,–,–,–,–,–
CNC(=O)c1cc(Oc2ccc(NC(=O)Nc3ccc(Cl)c(C(F)(F)F)c3)cc2)ccn1 [Sorafenib] (max concentration tested 1000 nM),–,–,–,–,–,–,–,–,–,–,0,0,0,0,0,0,0,0,0,0,0,0,0,0,0,-11.4,-5.93,-6.35 ± 3.5,-3.72,-0.19,-1.24 ± 2.1,-21.1,-4.54,11.4
CC[C@]1(O)C[C@H]2CN(CCc3c([nH]c4ccccc34)[C@@](C(=O)OC)(c3cc4c(cc3OC)N(C=O)[C@H]3[C@@](O)(C(=O)OC)[C@H](OC(C)=O)[C@]5(CC)C=CCN6CC[C@]43[C@@H]65)C2)C1 [Vincristine] (max concentration tested 1000 nM),–,–,–,–,–,–,–,–,–,–,30.5,17.9,21.1 ± 0.68,32.4,17,28.88 ± 0.23,20.9,23.6,26.7,8.67,13 ± 3,36,0.55,12.1,24.3,94,75.5,79.8 ± 1.9,94.5,67.8,95.45 ± 0.25,90.7,90.3,81.9
NC1(c2ccc(-c3nc4ccn5c(=O)[nH]nc5c4cc3-c3ccccc3)cc2)CCC1 [MK-2206] (max concentration tested 1000 nM),–,–,–,–,–,–,–,–,–,–,0.49,0.083,2.75 ± 0.87,2.7,1.05,0.275 ± 0.12,0,0,4.28,0,0,0,0,0,0,13.3,11,23.8 ± 1.6,29.9,18,10.5 ± 1.5,-3.64,2.43,46.2
CN(c1ccccc1CNc1nc(Nc2ccc3c(c2)CC(=O)N3)ncc1C(F)(F)F)S(C)(=O)=O (max concentration tested 10000 nM),–,–,–,–,–,–,–,–,–,–,6.95,14.5,7.1 ± 0.82,9.12,5.97,11.5 ± 0.24,13.8,7.26,10.6,1.33,2.52 ± 0.6,6.59,0.56,1.33,3.58,101,78.8,71.3 ± 1.1,95.3,83.9,100.3 ± 0.78,84,71.9,100
CC1(C)CNc2cc(NC(=O)c3cccnc3NCc3ccncc3)ccc21 [Motesanib] (max concentration tested 10000 nM),–,–,–,–,–,–,–,–,–,–,0,0,0,0,0,0,0.232,0,0.25,0,0.104 ± 0.15,0,0,0,0,7.18,9.4,6.17 ± 1.9,4.89,5.39,4.64 ± 6.4,15.5,-4.55,15
CC[C@@]1(O)C(=O)OCc2c1cc1n(c2=O)Cc2cc3c(CN(C)C)c(O)ccc3nc2-1 [Topotecan] (max concentration tested 10000 nM),–,–,–,–,–,–,–,–,–,–,21.7,19.6,18.9 ± 2.7,18.3,14.6,27.08 ± 0.12,22,27.2,26.3,27.9,16.1 ± 2.5,15.6,11.1,18.4,32.1,101,91.1,92.99 ± 0.57,92.2,87.1,96 ± 1.4,93.5,93.6,99.7
O=C(Nc1ccncc1)C(=O)c1cn(Cc2ccc(Cl)cc2)c2ccccc12 [Indibulin] (max concentration tested 10000 nM),–,–,–,–,–,–,–,–,–,–,10.5,11.2,15 ± 3.3,20.1,2.56,16.5 ± 0.54,10.5,14.4,10.2,5.82,10.8 ± 3.9,21.5,0,7.54,12.6,83.6,67.6,80.5 ± 4.1,93,24.1,93.04 ± 0.44,78.1,74.8,66.2
CC[C@]1(O)C[C@@H]2CN(CCc3c([nH]c4ccccc34)[C@@](C(=O)OC)(c3cc4c(cc3OC)N(C)[C@H]3[C@@](O)(C(=O)OC)[C@H](OC(C)=O)[C@]5(CC)C=CCN6CC[C@]43[C@@H]65)C2)C1 [Vinblastine] (max concentration tested 1000 nM),–,–,–,–,–,–,–,–,–,–,30,19.5,22.63 ± 0.18,30.1,16.2,29.53 ± 0.036,23.9,26.8,24.8,10.7,19.7 ± 1.8,32.9,1.24,21.5,31.1,91.9,76,81.1 ± 2.3,92.4,67.2,93.02 ± 0.22,87,84.7,83.8
CS(=O)(=O)c1ccc(C2=C(c3ccccc3)C(=O)OC2)cc1 [Rofecoxib] (max concentration tested 10000 nM),–,–,–,–,–,–,–,–,–,–,0,0,0,0,0,0,0,0,0,0,0,0,0,0,0,-5.42,2.15,3.17 ± 6.5,-0.415,-0.36,-1.92 ± 0.69,-0.797,3.44,1.11
